The source of these data is ChEMBL document CHEMBL3580553, “Potent and Nontoxic Chemosensitizer of P-Glycoprotein-Mediated Multidrug Resistance in Cancer: Synthesis and Evaluation of Methylated Epigallocatechin, Gallocatechin, and Dihydromyricetin Derivatives” (J Med Chem, 2015).

Data set [1] has as its target ATP-dependent translocase ABCB1 (Homo sapiens, UniProt P08183). As to the kind of experiment: Modulation of P-gp (unknown origin) transfected in human MDA435/LCC6MDR cells assessed as reversible of paclitaxel resistance measured as IC50 for paclitaxel at 1 uM after 5 days by CellTiter 96 Aqueous assay relative to PTX alone treated cell. In kind it is cell-based. The settings on record: 120 h.

A short description of data set [2]: Modulation of P-gp (unknown origin) transfected in human MDA435/LCC6MDR cells assessed as reversible of paclitaxel resistance measured as IC50 for paclitaxel at 1 uM after 5 days by CellTiter 96 Aqueous assay.
Data set [3] is described as follows: Cytotoxicity against human MDA435/LCC6MDR cells after 3 days by MTS assay. The format is functional, cell-based. The note with it: 72 h. For orientation: Tetrazolium assays rely on reduction of a dye to a coloured formazan, in cell work by metabolically active cells.
The test system of another data set is L929. Nature of the data set: Cytotoxicity against mouse L929 cells after 3 days by MTS assay. The format is cell-based. The settings on record: L929, 72 h.
Data set [4] is described as follows: Cytotoxicity against human LCC-6 cells after 3 days by MTS assay. The format is functional, cell-based. The settings on record: LCC-6, 72 h.

pIC50: −log10 of the molar value.

Chain of ATP-dependent translocase ABCB1 (P08183 whole entry): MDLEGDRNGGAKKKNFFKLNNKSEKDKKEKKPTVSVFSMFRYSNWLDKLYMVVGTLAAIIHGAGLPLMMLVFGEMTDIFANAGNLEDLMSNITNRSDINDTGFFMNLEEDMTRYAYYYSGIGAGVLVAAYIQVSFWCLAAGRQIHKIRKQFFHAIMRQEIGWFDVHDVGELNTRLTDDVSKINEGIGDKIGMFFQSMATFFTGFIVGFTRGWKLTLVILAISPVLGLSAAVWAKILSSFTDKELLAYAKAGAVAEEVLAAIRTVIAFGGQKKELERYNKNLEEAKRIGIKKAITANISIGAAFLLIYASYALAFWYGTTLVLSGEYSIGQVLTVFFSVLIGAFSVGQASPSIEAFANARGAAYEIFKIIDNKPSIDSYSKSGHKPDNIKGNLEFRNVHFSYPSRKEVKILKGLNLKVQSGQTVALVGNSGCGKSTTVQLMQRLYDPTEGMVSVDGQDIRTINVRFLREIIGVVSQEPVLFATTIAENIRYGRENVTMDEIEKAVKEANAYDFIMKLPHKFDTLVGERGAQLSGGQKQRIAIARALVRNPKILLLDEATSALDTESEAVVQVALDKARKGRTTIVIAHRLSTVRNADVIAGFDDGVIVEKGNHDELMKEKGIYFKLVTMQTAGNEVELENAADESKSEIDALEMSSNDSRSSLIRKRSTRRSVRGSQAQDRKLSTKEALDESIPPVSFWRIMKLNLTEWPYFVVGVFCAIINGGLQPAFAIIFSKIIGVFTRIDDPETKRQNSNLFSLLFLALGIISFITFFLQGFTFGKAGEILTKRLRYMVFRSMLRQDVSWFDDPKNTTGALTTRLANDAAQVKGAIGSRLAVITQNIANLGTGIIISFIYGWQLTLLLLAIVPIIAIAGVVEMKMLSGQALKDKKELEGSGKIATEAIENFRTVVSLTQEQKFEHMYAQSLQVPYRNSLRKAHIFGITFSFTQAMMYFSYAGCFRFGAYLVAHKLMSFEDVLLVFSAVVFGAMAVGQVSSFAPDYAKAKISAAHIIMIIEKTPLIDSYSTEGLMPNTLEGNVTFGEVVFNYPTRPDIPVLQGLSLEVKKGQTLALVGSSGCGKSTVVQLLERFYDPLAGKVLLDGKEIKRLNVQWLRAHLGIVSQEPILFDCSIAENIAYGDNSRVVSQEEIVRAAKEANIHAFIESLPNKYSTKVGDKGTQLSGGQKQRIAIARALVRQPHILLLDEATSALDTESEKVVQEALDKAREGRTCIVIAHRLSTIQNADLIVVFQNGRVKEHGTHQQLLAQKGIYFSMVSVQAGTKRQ

Consider `COc1cc(O)c2c(=O)c(OC(=O)c3cc(OC)c(OC)c(OC)c3)c(-c3ccc(OC)c(OC)c3)oc2c1`, for which the Ratio in data set [1] was 2.1.

For `COc1cc(OC)c2c(c1)O[C@H](c1cc(OC)c(OC)c(OC)c1)[C@H](OC(=O)c1ccc(F)c(NC(=O)c3ccc(F)c(NC(=O)c4cc(OC)c(OC)c(OC)c4)c3)c1)C2`, in data set [1], the Ratio amounted to 10.8.

A word on the IC50: it is the midpoint of a concentration-inhibition curve. Consider `COc1cc(OC)c2c(c1)O[C@H](c1cc(OC)c(OC)c(OC)c1)[C@@H](OC(=O)/C=C/c1cc(OC)c(OC)c(OC)c1)C2=O`, for which the IC50 in data set [2] worked out at 0.0159 µM. Besides, the Ratio in data set [1] was 9.1.

In the case of `COc1cc(OC)c2c(c1)O[C@H](c1cc(OC)c(OC)c(OC)c1)[C@@H](OC(=O)/C=C/c1ccc(OC)c(OC)c1)C2=O`, in data set [2], the IC50 came out at 0.0262 µM. Moreover, the Ratio in data set [1] is reported as 5.5.

`COc1cc(OC)c2c(c1)O[C@H](c1cc(OC)c(OC)c(OC)c1)[C@@H](OC(=O)c1cc(OC)c(OC)c(OC)c1)C2=O`: the Ratio in data set [1] turned out to be 3.3.

By pIC50 is commonly meant the IC50 on a negative log10 scale, so that one unit is a factor of ten. A lower pIC50 goes with a high IC50. For `COc1cc(OC)c2c(c1)O[C@H](c1cc(OC)c(OC)c(OC)c1)[C@H](O)C2`, the IC50 in data set [2] was 0.1552 µM. In addition, the results for the negative-log IC50 (pIC50) (in data set [3]; in the data set with L929; in data set [4]) were less than 4.12, less than 4.00 and less than 4.00, respectively. The Ratio in data set [1] was 0.9.

`COc1cc(OC)c2c(c1)O[C@H](c1cc(OC)c(OC)c(OC)c1)[C@H](OC(=O)c1ccc(F)c(N(C)C)c1)C2`: the pIC50 (in data set [3]; in the data set with L929; in data set [4]) was less than 4.00 throughout. Besides, the Ratio in data set [1] worked out at 4.

Regarding `COc1cc(OC)c2c(c1)O[C@H](c1cc(OC)c(OC)c(OC)c1)[C@H](OC(=O)c1ccc(F)c(NC(=O)/C=C/c3ccc(OC)c(OC)c3)c1)C2`, the IC50 in data set [2] amounted to 0.0081 µM. The negative logarithm of the IC50 (pIC50) (in data set [3]; in the data set on L929; in data set [4]) was less than 4.00 each time. Moreover, the Ratio in data set [1] was 17.9.

As to `COc1ccc(/C=C/C(=O)O[C@H]2C(=O)c3c(OC)cc(OC)cc3O[C@@H]2c2cc(OC)c(OC)c(OC)c2)cc1`, the Ratio in data set [1] is 3.6.

Take `COc1ccc(C(=O)O[C@H]2C(=O)c3c(OC)cc(OC)cc3O[C@@H]2c2cc(OC)c(OC)c(OC)c2)cc1`: in data set [1], the Ratio was 3.

On to `COc1cc(OC)c2c(c1)O[C@H](c1cc(OC)c(OC)c(OC)c1)[C@@H](OC(=O)/C=C/c1cc(OC)c(OC)c(OC)c1)C2`, for which the pIC50 (in data set [3]; in the data set with L929; in data set [4]) was less than 4.00 throughout.

Regarding `COc1cc(OC)c2c(c1)O[C@H](c1cc(OC)c(OC)c(OC)c1)[C@@H](OC(=O)c1ccc(OC)c(OC)c1)C2=O`, the Ratio in data set [1] is listed as 4.

With `C=CCOc1cc(C(=O)O[C@@H]2Cc3c(OC)cc(OC)cc3O[C@@H]2c2cc(OC)c(OC)c(OC)c2)cc(OCC=C)c1OCC=C`, the negative-log IC50 (pIC50) (in data set [3]; with L929; in data set [4]) was less than 4.00 in each case. In addition, the Ratio in data set [1] stood at 12.1.

As for `COc1cc(OC)c2c(c1)O[C@H](c1cc(OC)c(OC)c(OC)c1)[C@H](OC(=O)Cc1cc(OC)c(OC)c(OC)c1)C2`, the IC50 in data set [2] amounted to 0.025 µM. Also, in data set [1], the Ratio came out at 5.8.

For `CC(=O)Oc1cc(OC(C)=O)c2c(c1)O[C@H](c1cc(OC(C)=O)c(OC(C)=O)c(OC(C)=O)c1)[C@H](OC(=O)c1cc(OC(C)=O)c(OC(C)=O)c(OC(C)=O)c1)C2`, the results for the negative logarithm of the IC50 (pIC50) (in data set [3]; in the data set with L929; in data set [4]) were 4.50, 4.38 and 4.15, respectively. Moreover, the Ratio in data set [1] is 0.8.

As for `COc1cc(OC)c2c(c1)O[C@H](c1cc(OC)c(OC)c(OC)c1)[C@H](OC(=O)c1ccc(F)c(NC(C)=O)c1)C2`, the negative logarithm of the IC50 (pIC50) (in data set [3]; with L929; in data set [4]) was less than 4.00 throughout. The Ratio in data set [1] is 9.8.

With `COc1ccc(CCC(=O)O[C@@H]2Cc3c(OC)cc(OC)cc3O[C@@H]2c2cc(OC)c(OC)c(OC)c2)cc1`, the Ratio in data set [1] came to 3.6.

On to `COc1cc(OC)c2c(c1)O[C@H](c1cc(OC)c(OC)c(OC)c1)[C@H](OC(=O)c1ccc(F)cc1)C2`, for which the pIC50 (in data set [3]; in the data set with L929; in data set [4]) was less than 4.00 in each case. The Ratio in data set [1] turned out to be 2.7.

As to `COc1cc(OC)c2c(c1)O[C@H](c1cc(OC)c(OC)c(OC)c1)[C@H](OC(=O)c1ccc(F)c(NC(=O)c3ccc(F)c(NC(=O)c4ccc(OC)c(OC)c4)c3)c1)C2`, in data set [1], the Ratio was determined as 10.6.

Consider `COc1ccc(C(=O)OCCOc2c(-c3ccc(OC)c(OC)c3)oc3cc(OC)cc(OC)c3c2=O)cc1`, for which the Ratio in data set [1] is given as 6.

As to `COc1cc(OC)c2c(c1)O[C@H](c1cc(OC)c(OC)c(OC)c1)[C@H](OC(=O)c1ccc(OC)c(OC)c1)C2`, the negative logarithm of the IC50 (pIC50) (in data set [3]; in the data set with L929; in data set [4]) was less than 4.00 each time. Moreover, the Ratio in data set [1] was determined as 7.4.

On to `COc1ccc(C(=O)Nc2cc(C(=O)Nc3cc(C(=O)O[C@@H]4Cc5c(OC)cc(OC)cc5O[C@@H]4c4cc(OC)c(OC)c(OC)c4)ccc3F)ccc2F)cc1`, for which the half-inhibitory concentration (IC50) in data set [2] worked out at 0.0157 µM. Also, the Ratio in data set [1] is 9.2.

Turning to `COc1cc(OC)c2c(c1)O[C@H](c1cc(OC)c(OC)c(OC)c1)[C@H](OC(=O)CCc1cc(OC)c(OC)c(OC)c1)C2`, in data set [1], the Ratio is 8.

As to `COc1cc(OC)c2c(=O)c(OCCOC(=O)/C=C/c3cc(OC)c(OC)c(OC)c3)c(-c3ccc(OC)c(OC)c3)oc2c1`, the Ratio in data set [1] is reported as 11.2.

As to `COc1cc(OC)c2c(c1)O[C@H](c1cc(OC)c(OC)c(OC)c1)[C@@H](OC(C)=O)C2=O`, the Ratio in data set [1] stood at 1.4.

For `COc1ccc(/C=C/C(=O)O[C@H]2Cc3c(OC)cc(OC)cc3O[C@@H]2c2cc(OC)c(OC)c(OC)c2)cc1`, the Ratio in data set [1] is on record as 7.8.

As for `COc1ccc(C(=O)O[C@H]2Cc3c(OC)cc(OC)cc3O[C@@H]2c2cc(OC)c(OC)c(OC)c2)cc1`, the Ratio in data set [1] was 2.2.

With `COc1ccc(/C=C/C(=O)O[C@@H]2Cc3c(OC)cc(OC)cc3O[C@@H]2c2cc(OC)c(OC)c(OC)c2)cc1`, the pIC50 (in data set [3]; in the data set on L929; in data set [4]) was less than 4.00 each time. Moreover, the Ratio in data set [1] came out at 6.6.

`COc1cc(OC)c2c(c1)O[C@H](c1cc(OC)c(OC)c(OC)c1)[C@@H](OC(=O)c1cc(OC)c(OC)c(OC)c1)C2`: the Ratio in data set [1] was 3.

For the compound `COc1ccc(CC(=O)O[C@@H]2Cc3c(OC)cc(OC)cc3O[C@@H]2c2cc(OC)c(OC)c(OC)c2)cc1`, in data set [1], the Ratio was found to be 4.2.

On to `C=CCOc1cc(C(=O)O[C@H]2C(=O)c3c(OC)cc(OC)cc3O[C@@H]2c2cc(OC)c(OC)c(OC)c2)cc(OCC=C)c1OCC=C`, for which the Ratio in data set [1] is reported as 4.6.

Turning to `COc1cccc(C(=O)O[C@@H]2Cc3c(OC)cc(OC)cc3O[C@@H]2c2cc(OC)c(OC)c(OC)c2)c1`, the negative logarithm of the IC50 (pIC50) (in data set [3]; in the data set with L929; in data set [4]) was less than 4.00 each time. Further, in data set [1], the Ratio turned out to be 3.2.

`COc1cc(OC)c2c(c1)O[C@H](c1cc(OC)c(OC)c(OC)c1)[C@@H](O)C2`: the Ratio in data set [1] was found to be 1.1.

Regarding `COc1cc(OC)c2c(c1)O[C@H](c1cc(OC)c(OC)c(OC)c1)[C@@H](OC(=O)c1ccc(F)c(NC(=O)c3ccc(OC)c(OC)c3)c1)C2=O`, the Ratio in data set [1] amounted to 15.4.

As for `COc1cc(OC)c2c(c1)O[C@H](c1cc(OC)c(OC)c(OC)c1)[C@H](OC(=O)c1cccc(F)c1)C2`, the negative-log IC50 (pIC50) (in data set [3]; in the data set with L929; in data set [4]) was less than 4.00 in each case. In data set [1], the Ratio is 1.5.

With `COc1cc(OC)c2c(c1)O[C@H](c1cc(OC)c(OC)c(OC)c1)[C@@H](OC(=O)c1ccc(F)c(NC(=O)/C=C/c3cc(OC)c(OC)c(OC)c3)c1)C2=O`, in data set [1], the Ratio is listed as 5.2.

Consider `CC(=O)O[C@H]1C(=O)[C@@]2(C)[C@H]([C@H](OC(=O)c3ccccc3)[C@]3(O)C[C@H](OC(=O)[C@H](O)[C@@H](NC(=O)c4ccccc4)c4ccccc4)C(C)=C1C3(C)C)[C@]1(OC(C)=O)CO[C@@H]1C[C@@H]2O` [PACLITAXEL], for which the negative-log IC50 (pIC50) is 6.84 in data set [3] and 8.80 in data set [4].

In the case of `COc1cc(OC)c2c(c1)O[C@H](c1cc(OC)c(OC)c(OC)c1)[C@@H](OC(=O)c1ccc(F)c(NC(=O)c3cc(OC)c(OC)c(OC)c3)c1)C2=O`, the Ratio in data set [1] stood at 4.

For `COc1ccc(C(=O)O[C@@H]2Cc3c(OC)cc(OC)cc3O[C@@H]2c2cc(OC)c(OC)c(OC)c2)cc1`, the results for the pIC50 (in data set [3]; with L929; in data set [4]) were less than 4.08, less than 4.00 and less than 4.00, respectively. Further, the Ratio in data set [1] was found to be 1.

In the case of `CCOc1cc(C(=O)O[C@@H]2Cc3c(OC)cc(OC)cc3O[C@@H]2c2cc(OC)c(OC)c(OC)c2)cc(OCC)c1OCC`, the pIC50 (in data set [3]; in the data set on L929; in data set [4]) was less than 4.00 throughout. The Ratio in data set [1] is 1.3.

With `COc1cc(OC)c2c(c1)O[C@H](c1cc(OC)c(OC)c(OC)c1)[C@H](OC(=O)c1ccc(F)c(NC(=O)/C=C/c3cc(OC)c(OC)c(OC)c3)c1)C2`, the negative logarithm of the IC50 (pIC50) (in data set [3]; with L929; in data set [4]) was less than 4.00 each time. In addition, in data set [1], the Ratio is given as 23.3.

Regarding `COc1cc(OC)c2c(c1)O[C@H](c1cc(OC)c(OC)c(OC)c1)[C@H](OC(=O)Cc1ccc(OC)c(OC)c1)C2`, the Ratio in data set [1] turned out to be 4.5.

For the compound `COc1cc(OC)c2c(c1)O[C@H](c1cc(OC)c(OC)c(OC)c1)[C@H](OC(=O)CCc1ccc(OC)c(OC)c1)C2`, in data set [1], the Ratio is reported as 7.6.

Consider `COc1cc(OC)c2c(c1)O[C@H](c1cc(OC)c(OC)c(OC)c1)[C@@H](OC(=O)c1ccc(F)c(NC(=O)/C=C/c3ccc(OC)c(OC)c3)c1)C2=O`, for which, in data set [2], the concentration for half-maximal inhibition (IC50) came to 0.0144 µM. Further, in data set [1], the Ratio came to 10.

`COc1cc(OC)c2c(c1)O[C@H](c1cc(OC)c(OC)c(OC)c1)[C@@H](OC(=O)c1ccc(OC)c(OC)c1)C2`: the Ratio in data set [1] stood at 12.1.
